Source: patent US20220168427A1 (Ranok Therapeutics (Hangzhou) Co. Ltd., priority 2019, published 2022)
pIC50: −log10 of the molar value.

Experiments:
BRD4 = biological target: T1, BRD4 (Homo sapiens, UniProt O60885); experiment: BRD4 Western Blotting in MV4-11 cells; assay type: cell-based
T1 construct: endogenous in cells; host or cells: MV4-11
Protocol: Cells were then collected by centrifugation, washed one time with cold PBS, supernatants aspirated and cell pellets lysed with 4° C. RIPA lysis buffer containing a protease/phosphatase inhibitor cocktail. The total protein concentrations of cell lysates were determined by BCA Protein Assay kit. Samples were normalized for equivalent protein concentrations, 5× loading buffer added and heated to 100° C. for 10 min and cooled to room temperature. 20 μl of each sample/well was loaded on a SDS-PAGE gel and electrophoresed for 20 min at 80 V, then 120 V for 1.5 hr. Gels were then electroblotted to nitrocellulose membranes using a wet-transfer method at 250 mA for 2.5 hr. Membranes were incubated with blocking buffer for 1 hr and washed 3 times with TBST for 5 min. Then membranes were incubated with anti-BRD4 (Cell Signaling Technology, #13440) and anti-beta-Actin (Cell Signaling Technology, #3700) antibodies diluted in blocking buffer per the manufacturer's recommendation at 4° C. overnight. After washing 3 times, blots were incubated with the appropriate labeled secondary antibody for 1 hr at room temperature and washed again. Images were read on a LI-COR and the optical density values of bands determined by ImageJ software. Data was analyzed using GraphPad Prism 7.0.

MV4-11 xenograft = experiment: MV4-11 AML tumor xenograft study in mice; settings: for animals tumor free at the end of the study: 3 weeks; for tumor growth inhibition: after 3 weeks of dosing
Protocol: Tumor Xenograft Studies in Mice
MV4-11 acute myeloid leukemia and SU-DHL-4 diffuse large B-cell lymphoma (ATCC, #CRL-2957) cells were cultured in medium supplemented with 10% fetal bovine serum at 37° C./5% CO2. 5×10^6 MV-4-11 or 1×10^7 SU-DHL-4 cells were collected and re-suspended in 0.1 mL of serum-free media with Matrigel (1:1 v/v) per mouse for subcutaneous inoculation in isoflurane anesthetized male BALB/c nude or C.B-17 scid mice, respectively (treated in accordance with AAALAC animal welfare guidelines). When the average tumor volumes reached 100-200 mm^3, tumor volume outliers were removed and the remaining animals randomly divided into groups of 6-8 with similar average tumor volumes in each group. […] […] The appearance and behavior of each mouse was observed and recorded daily. Body weights and tumor volumes were measured and recorded every 2-4 days and the results were expressed as group means±SEM. Pairwise statistical comparisons between groups were performed by one-way ANOVA, and p<0.05 was considered statistically significant.

[1] = tested on: HSP90 client proteins (ERBB2, IGF1R, EGFR, RAF1); experiment: HSP90 Client Protein Degradation Flow Cytometry Assay, all clients together; assay type: cell-based, human; settings: versus 59 nM for BRD4 degradation by western blotting in MV4-11 cells
Protocol: (§1) MV4-11 cells were plated in a 24-well tissue culture plate at a density of 350,000 cells/450 μL/well and incubated in 37° C./5% CO2 for 1 hr. Cells were then treated with compounds at various concentrations and incubated in 37° C./5% CO2 for 24 hr. Cells were harvested, washed once, counted and 200 μL of 1% paraformaldehyde/PBS was added and incubated for 15 min at room temperature. 200 μL of 1×PBS/0.4% Triton X-100 was added and incubated for 15 min at 4° C. Cells were washed three times and resuspended in 50 μL of 1×PBS/0.2% Triton X-100. 2 μL/10^6 cells of anti-BRD4 antibody (ABCAM, #128874) was added and mixed by pipetting up and down. Cells were incubated for 30 min at room temperature in the dark, washed three times and resuspended in 50 μL of 1×PBS/0.2% Triton X-100. Goat anti-rabbit IgG H&L antibody (1:2000 dilution) was added and mixed by pipetting up and down and incubated for 30 min at room temperature in the dark. Finally, cells were washed three times and resuspended in 200 μL of PBS for flow cytometric analysis.
Similar flow cytometry experiments for ERBB2 in BT-474 human breast carcinoma cells (ATCC, #HTB-20) and IGF1R, EGFR and RAF1 in HEK-293 human embryonic kidney (ATCC, #CRL-1573) were performed using anti-ERBB2 (R&D, #FAB1129P), anti-IGF1R (Cell Signaling Technology, #9750), anti-EGFR (Cell Signaling Technology, #139690) and anti-RAF1 (ABCAM, #ab181115) antibodies. […]

IGF1R = experiment: HSP90 Client Protein Degradation Flow Cytometry Assay, IGF1R in HEK-293 cells; assay type: cell-based, human
Protocol: as §1
(§2) Similar flow cytometry experiments for ERBB2 in BT-474 human breast carcinoma cells (ATCC, #HTB-20) and IGF1R, EGFR and RAF1 in HEK-293 human embryonic kidney (ATCC, #CRL-1573) were performed using anti-ERBB2 (R&D, #FAB1129P), anti-IGF1R (Cell Signaling Technology, #9750), anti-EGFR (Cell Signaling Technology, #139690) and anti-RAF1 (ABCAM, #ab181115) antibodies.

ERBB2 = experiment: HSP90 Client Protein Degradation Flow Cytometry Assay, ERBB2 in BT-474 cells; assay type: cell-based, human
Protocol: as §1, §2

RAF1 = experiment: HSP90 Client Protein Degradation Flow Cytometry Assay, RAF1 in HEK-293 cells; assay type: cell-based, human
Protocol: as §1, §2

[2] = 100 mg/kg intravenously 1×/week

Cc1sc2c(c1C)C(c1ccc(Cl)cc1)=N[C@@H](CC(=O)N1CCC(CN3CCN(Cc4ccc(-n5c(O)nnc5-c5cc(C(C)C)c(O)cc5O)cc4)CC3)CC1)c1nnc(C)n1-2.Cl [Compound 74, (S)-2-(4-(4-chlorophenyl)-2,3,9-trimethyl-6H-thieno[3,2-f][1,2,4]triazolo[4,3-a][1,4]diazepin-6-yl)-1-(4-((4-(4-(3-(2,4-dihydroxy-5-isopropylphenyl)-5-hydroxy-4H-1,2,4-triazol-4-yl)benzyl)piperazin-1-yl)methyl)piperidin-1-yl)ethan-1-one hydrochloride]
BRD4 degradation by western blotting with proteasome inhibitor bortezomib (BRD4; MV4-11 cells treated with both compound 074 and bortezomib): BRD4 degradation was blocked
BRD4 degradation by western blotting (BRD4; MV4-11 cells, 24 hr, 100 and 300 nM): BRD4 degradation was observed
DC50 (BRD4; MV4-11 cells, read-out: IC50 value for BRD4 degradation determined by western blotting): 59 nM
animals tumor free at the end of the study (MV4-11 xenograft; 50 mg/kg intravenously 1×/week): 1 out of 6
tumor growth inhibition (MV4-11 xenograft; 50 mg/kg intravenously 1×/week): significant tumor growth inhibition
animals tumor free at the end of the study (MV4-11 xenograft; [2]): 4 out of 6
tumor growth inhibition (MV4-11 xenograft; [2]): significant tumor growth inhibition
animal deaths and body weights (MV4-11 xenograft; any group): No animal deaths or significant effects on body weights were observed
IC50 for HSP90 clients higher than the IC50 value for BRD4 degradation [1]: 6- to 18 fold
pIC50 (IGF1R): 5.98
pIC50 (ERBB2): 6.47
pIC50 (RAF1): 6.12
